{
  "source": "patent US12116421B2",
  "about": "“Peptide-based Dopa containing adhesive gels” (KING ABDULLAH UNIVERSITY OF SCIENCE AND TECHNOLOGY, priority 2020, dated 2024)",
  "key": {"[1]": {"experiment": "AFM force spectroscopy adhesion measurement in liquid", "assay_type": "physicochemical", "procedure": "In one embodiment, the peptides were dissolved in the proper solution at a concentration of 10 mg/mL. The peptide solutions were spotted on a freshly cleaved mica sheet and the measurement was performed in liquid.\nIn one embodiment, the adhesion properties of the Dopa peptides are influenced by the construct lysine-Dopa and by the position of the catechol moiety in the peptide sequence, as indicated by the AFM force spectroscopy results in liquid. In a typical force spectroscopy curve the probe is several times approached to the surface and retracted and for every cycle of retraction the maximum force of adhesion is recorded. The incorporation of a catechol moiety near a lysine would enhance adhesion to negatively charged surfaces. FIG. 28 illustrates the effect of lysine on adhesion to negatively charged surfaces. Therefore, probes and substrates that were manifesting negative charges on their surfaces, such as the silicon probe and the freshly cleaved mica substrate, are used in the AFM spectroscopy. The setup of probe and substrate is illustrated in FIG. 29.\nThe peptides dissolved in the proper solution at 13 mM concentration each, were spotted on a freshly cleaved mica sheet and the measurement was performed in liquid. Several force curves were recorded for different buffers. […] In FIG. 30, the inset image represents the maximum extension of each peptide dissolved in water, when manually pulled between two glass slides. Also in FIG. 30, the approach part of the curve contains the important information defined as “jump to contact”, while the retract part of the F-D curve contains the adhesion force value. […] Two controls were also introduced: namely the original peptide IIZK, and an alternative peptide IIFK. To better understand the influence of Dopa on the adhesion properties of the peptide, the original short peptide IIZK would make a perfect negative control. We also introduced as a control the IIFK peptide in order to understand the effect of IIZK itself on adhesion. In FIG. 32, statistical significance expressed as p<0.01.\nAFM topography measurements were performed on a Dimension Icon SPM (Bruker®). The samples were prepared as follows: peptides were dissolved at 13 mM concentration in MilliQ® water; after 30 minutes, 20 μl of these solutions were dropped on freshly cleaved mica sheets and immediately dried with an N2 stream. Measurements were immediately performed in tapping mode in air by the use of an AFM probe AC_240TS_R3 (Olympus®) with nominal free oscillation at roughly 70 kHz and a nominal spring constant of 2 N/m. The probe was calibrated by contact-free method.^54 Free oscillation amplitude was set at 200 mV with a 5% damping during tapping mode measurement. AFM adhesion measurements were performed on a JPK Nanowizard™ III mounted on Olympus® IX-81 inverted optical microscope. A mica sheet was glued one day before the experiment with double component epoxy glue to a glass slide and enclosed in a plastic o-ring provided by the JPK company for liquid measurements. Each peptide was dissolved in MilliQ® water at a concentration of 13 mM and mixed gently. Starting with the measurement in MilliQ® water, 50 μL of the solution were dropped on the freshly cleaved mica sheet within 5 minutes from the preparation of the solution and let equilibrate for 10 minutes. After, the excess solution was removed by pipetting and discarded. Then 1 mL of MilliQ® water was added gently from the side and after 5 minutes, the sample was rinsed 3 times by additional 1 mL MilliQ® water. Finally, the sample was measured by AFM force spectroscopy (Quantitative imaging mode) with additional 1 mL MilliQ® water. The MilliQ® water was exchanged after the measurement alternatively with a water solution containing 137 mM NaCl or 10 mM Phosphate ions (a combination of Na2HPO4·7H2O and NaH2PO4·H2O to reach pH 7.4). After performing the force spectroscopy map in these two different solutions, eventually, the liquid was exchanged with 1×PBS pH 7.4. […]"}, "[2]": {"tested_on": "mouse myoblast cells (C2C12)", "experiment": "Cytocompatibility of peptide nanogels, 3D culture, MTT and live/dead staining", "assay_type": "cell-based", "details": "various concentrations up to the solubility limit of the peptides"}, "[3]": {"tested_on": "mouse myoblast cells (C2C12)", "experiment": "Cytocompatibility of peptide nanogels, 3D culture, MTT and live/dead staining", "assay_type": "cell-based", "details": "for effect on cell growth: C2C12, nanogel 3 mg/mL, compared to 2D culture; for biocompatibility with C2C12 cells: hydrogel scaffold, live/dead staining versus 2D culture", "procedure": "In one embodiment, cytocompatibility of the peptide nanogels was evaluated using mouse myoblast cells (C2C12). After 24 hours of incubation, cell proliferation was tested with DoIIZK, IIZDoK, IIZKDo, IIZ(KDo)2 and IIZ(KDo)3 at a concentration of 3 mg/mL to evaluate biocompatibility. The MTT (3-(4,5-dimethylthiazol-2-yl)-2,5-diphenyltetrazolium bromide) assay was used in order to quantify the number of viable cells. In one embodiment, a standard curve for a known number of cells was also plotted. In one embodiment, the test results were compared to the positive control 2D culture. A positive indication of cytocompatibility would be the survival of the cells following incubation with the peptides. For comparison, peptides DoIIZK, IIZDoK, IIZKDo, IIZ(KDo)2 and IIZ(KDo)3 were tested as part of the study. The cytocompatibilty of all peptides tested was evaluated by quantifying the survival cells by visualising the live/dead cells using calcein AM and Ethidium bromide staining.\nPoli-D Lysine (PDL) was used for 2D control. The scalebar in FIG. 35 is 200 μm. Cytocompatibility of all peptides was evaluated by quantifying the survival cells by visualising the live/dead cells using calcein AM and Ethidium homodimer staining. The live cells are stained green by calcein AM, while the dead cells are stained red by Ethidium homodimer.\nFor mouse myoblast cells (C2C12) culture expansion, C2C12 cells were cultured either in a T175 or T75 culture flask in complete DMEM media (10% FBS and 1% P/S). The cells were placed in a humidified incubator at 37° C., with 95% air and 5% CO2. Then they were subcultured using trypsin at approximately 80% confluence. Fresh culture media was added every 48 h to each well, after removing the previous media.\nFor 3D culture of mouse myoblast cells in peptide hydrogels and cell viability assay, C2C12 cells were encapsulated in peptide hydrogels in a 96-well plate.^61 Briefly, peptide solutions DopaIIZK, IIZDopaK, IIZKDopa (3 mg/mL) were added to 40 μL/well. Mouse myoblast cells (30,000 cells/well) that were re-suspended in 2×PBS were then, mixed gently with the peptide solutions. The gelation time was 1-3 min for all 5 peptides. Subsequently, the culture medium was added to the wells.\nThe viability of 3D cultured cells was assessed using the LIVE/DEAD Viability/Cytotoxicity Kit (ThermoFisher®, USA)^11. Calcein acetoxymethyl ester (Calcein-AM) is used to detect viable cells and ethidium homodimer-I (EthD-I) is used to detect dead cells. Briefly, staining with 2 μM of Calcein-AM and 4 μM of EthD-1 is performed after washing with Dulbecco's phosphate-buffered saline (D-PBS). After 30 minutes incubation, the staining solution was discarded, and 1×D-PBS was added to each well before imaging. Stained cells were imaged with an inverted confocal microscope (Zeiss® LSM 710 Inverted Confocal Microscope, Germany) or ZEISS® fluorescent microscope."}},
  "note": "Where a SMILES comes first, the peptide text is derived from it. [ ]: non-standard residue; d: D form. Dopa = N[C@@H](Cc1ccc(O)c(O)c1)C(=O)O; Cha = N[C@@H](CC1CCCCC1)C(=O)O",
  "data": [
    {"compound": "Ac-II[Cha]K-NH2 [IIZK, reference compound]", "values": [
      {"measurement": "Force of adhesion (Geometric Mean)", "setting": "[1]; 10 mM PO4, peptide 13 mM", "result": 5.681, "unit": "PN"},
      {"measurement": "Force of adhesion (Geometric Mean)", "setting": "[1]; 137 mM NaCl, peptide 13 mM", "result": 100.4, "unit": "PN"},
      {"measurement": "Force of adhesion (Geometric Mean)", "setting": "[1]; 1×PBS, peptide 13 mM", "result": 11.5885, "unit": "PN"},
      {"measurement": "Force of adhesion (Geometric Mean)", "setting": "[1]; MilliQ water, peptide 13 mM", "result": 75.66, "unit": "PN"},
      {"measurement": "increase of adhesion force by addition of NaCl", "setting": "[1]; NaCl versus MilliQ water", "result": 20, "unit": "%"}
    ]},
    {"compound": "Ac-Ile-Ile-Phe-Lys-NH2 (Ac-IIFK-NH2) [alternative peptide used as control, reference compound]", "values": [
      {"measurement": "Force of adhesion (Geometric Mean)", "setting": "[1]; 10 mM PO4, peptide 13 mM", "result": 8.358, "unit": "PN"},
      {"measurement": "Force of adhesion (Geometric Mean)", "setting": "[1]; 137 mM NaCl, peptide 13 mM", "result": 13.217, "unit": "PN"},
      {"measurement": "Force of adhesion (Geometric Mean)", "setting": "[1]; 1×PBS, peptide 13 mM", "result": 12.13, "unit": "PN"},
      {"measurement": "Force of adhesion (Geometric Mean)", "setting": "[1]; MilliQ water, peptide 13 mM", "result": 89.77, "unit": "PN"},
      {"measurement": "reduction of adhesion values by addition of both NaCl and PO4", "setting": "[1]; NaCl and PO4 versus MilliQ water", "result": "about 80%"}
    ]},
    {"compound": "CC[C@H](C)[C@H](NC(C)=O)C(=O)N[C@H](C(=O)N[C@@H](CC1CCCCC1)C(=O)N[C@@H](CCCCN)C(=O)N[C@@H](Cc1ccc(O)c(O)c1)C(=O)N[C@@H](CCCCN)C(=O)N[C@@H](Cc1ccc(O)c(O)c1)C(=O)N[C@@H](CCCCN)C(=O)N[C@@H](Cc1ccc(O)c(O)c1)C(N)=O)[C@@H](C)CC", "note": "[IIZ(KDo)3] (Ac-II[Cha]K[Dopa]K[Dopa]K[Dopa]-NH2)", "values": [
      {"measurement": "cell viability / toxicity", "setting": "[2]", "result": "toxic"},
      {"measurement": "effect on cell growth", "setting": "[3]", "result": "reduced cell growth"},
      {"measurement": "biocompatibility with C2C12 cells", "setting": "[3]", "result": "not biocompatible"}
    ]},
    {"compound": "CC[C@H](C)[C@H](NC(C)=O)C(=O)N[C@H](C(=O)N[C@@H](CC1CCCCC1)C(=O)N[C@@H](CCCCN)C(=O)N[C@@H](Cc1ccc(O)c(O)c1)C(=O)N[C@@H](CCCCN)C(=O)N[C@@H](Cc1ccc(O)c(O)c1)C(N)=O)[C@@H](C)CC", "note": "[IIZ(KDo)2] (Ac-II[Cha]K[Dopa]K[Dopa]-NH2)", "values": [
      {"measurement": "cell viability / toxicity", "setting": "[2]", "result": "good viability"},
      {"measurement": "effect on cell growth", "setting": "[3]", "result": "did not affect cell growth"},
      {"measurement": "metabolic activity of cells versus 2D cultures", "setting": "[3]; cells cultured in nanogels, 2D = cells in absence of peptides", "result": "consistently comparable to 2D cultures"},
      {"measurement": "time cells stay metabolically active in nanogel", "setting": "[3]; cells grown in nanogels", "result": "metabolically active for up to day 21"},
      {"measurement": "biocompatibility with C2C12 cells", "setting": "[3]", "result": "biocompatible"}
    ]}
  ]
}
